Values of other authors as cited in patent publication US11464838B2, “Optimized cancer stem cell vaccines” (COLORADO STATE UNIVERSITY RESEARCH FOUNDATION, priority 2015, dated 2022).

conditions: in vivo

Bioavailability	Biological Half-Life	SMILES
60%	11 hours	CCOc1nc2cccc(C(=O)O)c2n1Cc1ccc(-c2ccccc2-c2noc(=O)[nH]2)cc1 [Azilsartan]
13%	5 hours	CCCCc1ncc(/C=C(\Cc2cccs2)C(=O)O)n1Cc1ccc(C(=O)O)cc1 [Eprosartan]
70%		CCCCC1=NC2(CCCC2)C(=O)N1Cc1ccc(-c2ccccc2-c2nnn[nH]2)cc1 [Irbesartan]
	2 hours	CCCCc1nc(Cl)c(CO)n1Cc1ccc(-c2ccccc2-c2nn[nH]n2)cc1 [Losartan]
